Measured values reported in patent publication US20240197623A1, “SILICA-BASED FORMULATIONS OF THERAPEUTIC OLIOGPEPTIDES AND PEPTIDOMIMETICS” (Stealth Bio Therapeutics Inc., priority 2021, published 2024).
Where a SMILES comes first, the peptide text is derived from it. [ ]: non-standard residue; d: D form. Dmt = Cc1cc(O)cc(C)c1C[C@H](N)C(=O)O

Legend:
[1] = system: age-related visual impairment; details: Alam et al., Disease Models & Mechanisms (2021); cited from earlier work
[2] = system: patients with intermediate age-related macular degeneration (AMD) and high-risk drusen (HRD); details: subcutaneous administration, ReCLAIM, Ophthalmology Science 2022; cited from earlier work
[3] = Release/stability of API in ammonium bifluoride, stability-indicating RP-HPLC; format: physicochemical; details: for modification of the API by the formulation process: impurities in fresh API vs API released from microparticle formulations

Which results are given for Cc1cc(O)cc(C)c1C[C@H](NC(=O)[C@H](N)CCCNC(=N)N)C(=O)N[C@@H](CCCCN)C(=O)N[C@@H](Cc1ccccc1)C(N)=O [elamipretide] (H-[dR][Dmt]KF-NH2)?
treatment of photopic age-related loss of spatial vision [1]: effective; safety and tolerability [2]: safe and well-tolerated; modification of the API by the formulation process [3]: not significantly modified

Which results are given for Cc1cc(O)cc(C)c1C[C@H](NC(=O)[C@H](N)CCCNC(=N)N)C(=O)N[C@@H](CCCCN)c1nc(Cc2ccccc2)no1 [Compound I]?
Purity ([3]; Control/standard: 16 μg/mL Compound I in H2O): 99.1%; Purity ([3]; Control/standard: 40 μg/mL Compound I in H2O): 98.4%; Purity ([3]; Spiked: 16 μg/mL Compound I in 0.1M NH4HF2): 99.2%; Purity ([3]; Spiked: 40 μg/mL Compound I in 0.1M NH4HF2): 98.6%; modification of the API by the formulation process [3]: not significantly modified
